Data reported in patent US11160788B2, “Caspase-1 inhibition and uses thereof for prevention and treatment of neurological conditions” (priority 2016, dated 2021).
pIC50: −log10 of the molar value.

What was measured:
[1] = test system: serum deprived human primary neurons; assay: Neuritic beading in serum-deprived human primary neurons; format: cell-based; conditions: reversal treatment 48 hrs after serum deprivation
Procedure: (§1) FIG. 13: VX-765 protects CNS primary human neurons (HPN) against APP- or serum deprivation-mediated neuritic beading. (a) MTT assay with increasing dose of VX-765. (b) Fluorescent micrographs showing homogeneous distribution of EGFP in normal neurons and neuritic beading in APP-transfected neurons. (c) Percentage beading in APP-transfected or serum-deprived neurons treated 1 h before and continuously with stressor (Pre-treatment) or 48 h after stressor (post-beading treatment) with 25 or 50 μM VX-765 or with 5 μM Z-YVAD-fmk Casp1 peptide inhibitor. […] (d-e) HPN secreted or cellular Aβ42/total Aβ38+40+42 (d) (F(3,4)=12.73, p=0.0163, ANOVA, Dunnett's post-hoc compared to Serum+DMSO, *p<0.05), and (e) levels of secreted II-1β, IFN-γ, TNF-α, and II-6 from untreated (+S), serum deprived (−S), or serum-deprived human neurons treated with 25 or 50 μM VX-765.
(§2) EGFP-labeled human primary neurons were either APP^WT transfected or serum deprived. Two treatment strategies were employed to determine VX-765's effects on neuronal degeneration: our Pre-Treatment strategy looked at whether VX-765 could block neuronal degeneration when administered 1 hr prior to APP^WT transfection or serum deprivation, while our Reversal Treatment strategy looked at whether VX-765 could reverse degenerative effects when administered 48 hrs after APP^WT transfection or serum deprivation. Neurons displaying beaded morphology were counted with live imaging and measured as a percentage of the total number of eGFP+ neurons from 24-72 hrs after treatment. The irreversible caspase-1 inhibitor YVAD-fmk was used as positive control in our experiments. Results were obtained from averaging counts for at least 100 eGFP+ neurons per experiment in three independent neuron preparations.

[2] = test system: APP^WT-transfected human primary neurons; assay: Neuritic beading in APPWT-transfected human primary neurons; format: cell-based
Procedure: as §1, §2

recombinant human Casp1 = molecular target: T1, recombinant human Casp1 (Homo sapiens, UniProt P29466); assay: Caspase inhibition IC50, recombinant human Casp1; format: biochemical; conditions: read-out: IC50 against human Casp1
T1 sequence (P29466 120-297 limits assumed): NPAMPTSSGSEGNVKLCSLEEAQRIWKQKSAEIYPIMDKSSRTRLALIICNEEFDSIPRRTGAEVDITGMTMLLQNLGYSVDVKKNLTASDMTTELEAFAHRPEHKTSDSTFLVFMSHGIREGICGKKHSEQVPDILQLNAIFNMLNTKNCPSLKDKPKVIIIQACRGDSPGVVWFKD
T1 sequence (P29466 317-404 limits assumed): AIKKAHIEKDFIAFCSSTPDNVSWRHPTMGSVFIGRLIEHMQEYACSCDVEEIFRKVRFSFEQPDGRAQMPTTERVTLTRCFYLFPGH
Procedure: (§3) FIG. 14: Selectivity and blood brain permeability of VX-765 and VRT-043198. (a-b) IC50 of VX-765 (a) and VRT-043198 (b) against human Casp1-10. (c-d) IC50 of VX-765 (c) and VRT-043198 (d) against mouse Casp1 and Casp11. (e) Blood brain barrier permeability and presence of VX-765 and VRT-043198 in 3 wild type and 4 J20 mice brain cortex and hippocampus and in plasma. Ratios of brain levels to plasma levels are calculated.

mouse recombinant Casp1 = molecular target: T2, mouse recombinant Casp1 (Mus musculus, UniProt P29452); assay: Caspase inhibition IC50, mouse recombinant Casp1; format: biochemical; conditions: read-out: IC50 against mouse Casp1
T2 sequence (P29452 119-296 limits assumed): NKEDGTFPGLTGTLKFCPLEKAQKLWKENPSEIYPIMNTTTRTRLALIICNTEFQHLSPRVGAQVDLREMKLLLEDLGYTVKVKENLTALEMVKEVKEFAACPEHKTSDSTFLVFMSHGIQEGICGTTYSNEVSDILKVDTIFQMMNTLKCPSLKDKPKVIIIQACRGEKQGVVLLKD
T2 sequence (P29452 315-402 limits assumed): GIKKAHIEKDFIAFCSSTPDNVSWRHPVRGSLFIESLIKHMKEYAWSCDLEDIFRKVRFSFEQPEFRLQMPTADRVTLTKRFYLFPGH
Procedure: as §3

Row | Compound | neuritic beading [1] | neuritic beading ([2]; pre-treatment 1 h before and continued, VX-765 25 and 50 μM, Z-YVAD-fmk 5 μM, 48 and 72 h) | neuritic beading ([2]; reversal (post-beading) treatment 48 hrs after APP^WT transfection, listed as YVAD) | neuritic beading ([2]; reversal (post-beading) treatment 48 hrs after APP^WT transfection, listed as YVAD-fmk) | pIC50 (recombinant human Casp1) | pIC50 (mouse recombinant Casp1)
1 | Z-YVAD-fmk | neither YVAD nor VX-765 were able to reverse neuritic beading | prevented neuritic beading | not able to reverse neuritic beading at any time-point | unable to reverse or prevent neuritic beading at any time-point |  | 
2 | CC(C)(C)[C@H](NC(=O)c1ccc(N)c(Cl)c1)C(=O)N1CCC[C@H]1C(=O)N[C@H]1CC(=O)OC1O (stereo partly drawn) [VRT-043198, (2S)-1-((S)-2-(4-amino-3-chlorobenzamido)-3,3-dimethylbutanoyl)-N-((3S)-2-hydroxy-5-oxotetrahydrofuran-3-yl)pyrrolidine-2-carboxamide] |  |  |  |  | 8.00 | 7.74
